# According to patent US20070093520A1, “Method of treatment of diarrhea-predominant irritable bowel syndrome in a subject” (priority 2005, published 2007):
# Tested on: subjects with ROME II defined IBS-D
# Experiment: 5050 Study: double-blind placebo-controlled prn safety study, adverse events and withdrawals
# Assay type: in vivo, human
# Conditions: Study 5050
# Protocol: The 5050 Study was a double-blind, randomized, placebo-controlled study to evaluate the long-term safety and tolerability of cilansetron 2 mg taken on an as needed (prn) basis for 1 year by male and female subjects with ROME II defined IBS-D. The study was performed in 68 centers. Patients were randomized in a 3:1 ratio to receive either cilansetron 2 mg prn or placebo, up to 3 times a day. Safety parameters were explored by comparing the double-blind groups, average daily doses and treatment exposure. Patient visits were scheduled as follows: Visit 1 (pretreatment), Visit 2 (Day 1), Visit 3 (Month 1), Visit 4 (Month 3), Visit 5 (Month 6), Visit 6 (Month 9), and Visit 7 (Month 12). Safety assessments included: adverse events (AEs)/serious adverse events (SAES); laboratory parameters (pretreatment visit and at Months 1, 6, and 12); electrocardiograms (pretreatment visit and at Months 1, 6, and 12); vital signs (at each visit); physical examinations and body weight (pretreatment visit and at Month 12); prior and concomitant medication use (each visit and/or through spontaneous reporting); stool cards for occult blood (every visit except Visit 1). The number of tablets taken per day was recorded daily through a validated interactive voice response system. Patients who met the ROME criteria for IBS and ROME II criteria for the diarrhea predominant subpopulation were included in the study. Patients with acute colitis of any etiology, history of chronic colitis of any etiology, or a history of intestinal obstruction, stricture, toxic megacolon, gastrointestinal (GI) perforation, or fecal impaction were excluded from the study.
# For Study 5050, of a total of 402 patients randomized to treatment, 400 received study medication and 395 were included in the safety analysis (cilansetron, N=301; placebo, N=94). Five patients were excluded because of a lack of a post-baseline safety evaluation. Thirty nine percent of patients in the cilansetron group and 56% in the placebo group withdrew from the study; the differences in withdrawals largely were due to lack of efficacy (15% v. 34%, respectively), followed by other unspecified reasons (16% v. 19%, respectively) and AEs (10% v. 9%, respectively). Most patients (57%) were in the 41 to 64 year age category and 72% of all patients were female.
smiles,measurement,setting,value
"Cc1nccn1C[C@H]1CCc2c(c3cccc4c3n2CCC4)C1=O [cilansetron, (R)-(−)-4,5,6,8,9,10-hexahydro-10-[(2-methyl-1H-imidazol-1-yl)methyl]-11H-pyrido-[3,2,1-jk]-carbazol-11-one]",Treatment-related AE: Alanine aminotransferase increased,2 mg prn (N = 301),9 (3) N (%)
same,Treatment-related AE: Diarrhea (not otherwise specified),2 mg prn (N = 301),5 (2) N (%)
same,Treatment-related AE: Flatulence,2 mg prn (N = 301),6 (2) N (%)
same,Treatment-related AE: Headache (not otherwise specified),2 mg prn (N = 301),13 (4) N (%)
same,Treatment-related AE: Nausea,2 mg prn (N = 301),15 (5) N (%)
same,Treatment-related AE: Rectal Hemmorhage,2 mg prn (N = 301),8 (3) N (%)
same,treatment-related AE: abdominal pain not otherwise specified,2 mg prn (N = 301),16 (5) N (%)
same,treatment-related AE: constipation,2 mg prn (N = 301),24 (8) N (%)
same,AE incidence: GI and abdominal pain (excluding oral and throat),cilansetron group,12%
same,AE incidence: GI atonic and hypomotility disorders,cilansetron group,11%
same,AE incidence: nausea and vomiting,cilansetron group,7%
same,AE leading to study discontinuation: abdominal pain,cilansetron group,2%
same,AE leading to study discontinuation: constipation,cilansetron group,2%
same,treatment-related AE: abdominal pain not otherwise specified,cilansetron group,5%
same,treatment-related AE: constipation,cilansetron group,8%
same,withdrawals due to AEs,cilansetron group,10%
same,withdrawals due to lack of efficacy,cilansetron group,15%
